Measured values from US20130136691A1, “GASTRIN […] PEPTIDE COMPOUNDS” (priority 2008, published 2013).

How the values were obtained:
PC3 cells = assay: Internalization and efflux assay in PC3 cells (125I-BBN, 177Lu complexes); format: cell-based, human; conditions: 37° C., 125I-BBN and Lu-177 complexes; for Efflux (2 h): after 40 min loading
Protocol: These studies were conducted in a 96-well plate. […] Incubations were stopped by the addition of 200 μl of ice-cold binding buffer. Plates were washed twice with binding buffer. To remove surface-bound radioligand, the cells were incubated with 0.2M acetic acid (in saline), pH 2.8 for 2 min. Plates were centrifuged and the acid wash media were collected to determine the amount of radioactivity which was not internalized. The cells were collected to determine the amount of internalized ^125I-BBN, and all samples were analyzed in the gamma counter. Data for the internalization assay was normalized by comparing counts obtained at the various time points with the counts obtained at the final time point (T=40 min).
For the efflux studies, after loading the PC3 cells with ^125I-BBN or radiolabeled compounds of the invention for 40 min at 37° C., the unbound material was filtered, and the % of internalization was determined as above. The cells were then resuspended in binding buffer at 37° C. for up to 3 h.

[1] = test system: PC3 tumor-bearing nude mouse model; assay: Radiotherapy efficacy studies (short and long term survival); format: in vivo; conditions: 177Lu labeled; for survival, Short Term Efficacy Study: 30 mCi/kg i.v. or s.c., versus untreated control and DO3A-monoamide-Aoc-QWAVGHLM-NH2 control; for survival, Long Term Efficacy Study: 30 mCi/kg, up to 120 days, n=46, p<0.0001 versus controls
Protocol: Radiotherapy studies were performed using the PC3 tumor-bearing nude mouse model. […] (n=12 for each treatment group for up to days, and n=36 for the pooled untreated control group for up to 31 days). […] The subjects were housed in a barrier environment for the duration of the study. Body weight and tumor size (by caliper measurement) were collected on each subject 3 times per week for the duration of the study. Criteria for early termination included: death; loss of total body weight (TBW) equal to or greater than 20%; tumor size equal to or greater than 2 cm^3.

NMB-R = target: T1, NMB-R (Rattus norvegicus, UniProt P24053); assay: Competition with 125I-NMB for NMB-R in C6 cells; format: binding, rodent; conditions: cut off 10× the IC50 of [Tyr4]-BBN; for GRP-R and NMB-R (binds both with similar affinity): class from IC50 with 125I-NMB on C6 cells; for receptor subtype preference (GRP-R versus NMB-R): from IC50 with 125I-NMB on C6 cells and 125I-BBN on PC3 cells
T1 construct: C6, an NMB-R expressing rodent glioblastoma cell line; host or cells: C6 glioma cells (intact, plated)
T1 sequence (P24053 1-390): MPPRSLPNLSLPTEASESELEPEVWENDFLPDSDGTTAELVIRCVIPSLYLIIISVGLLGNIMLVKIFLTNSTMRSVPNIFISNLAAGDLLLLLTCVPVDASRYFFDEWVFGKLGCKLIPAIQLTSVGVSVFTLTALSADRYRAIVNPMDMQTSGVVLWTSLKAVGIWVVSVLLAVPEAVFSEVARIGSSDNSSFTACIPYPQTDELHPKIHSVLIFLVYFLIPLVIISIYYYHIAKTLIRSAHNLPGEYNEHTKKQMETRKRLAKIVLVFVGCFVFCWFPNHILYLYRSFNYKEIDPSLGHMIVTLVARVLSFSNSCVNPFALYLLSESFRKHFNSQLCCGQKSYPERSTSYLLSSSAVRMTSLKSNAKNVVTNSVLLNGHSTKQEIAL
Protocol: Two cell lines, C6, an NMB-R expressing rodent glioblastoma cell line and PC3, a GRP-R expressing human prostate cancer cell line, were used in this assay. The affinity of various unlabeled compounds for each receptor subtype (NMB-R and GRP-R) was determined indirectly by measuring its ability to compete with the binding of ^125I-NMB or ^125I-BBN to its corresponding receptors in C6 and PC3 cells.
Cells for the assays were plated at a concentration of 9.6×10^4/well in 48 well poly-lysine coated plates (Beckton Dickinson Biocoat). PC3 were obtained from ATCC(CRL-1435) and cultured in RPMI 1640 (ATCC) supplemented with 2 mM L-glutamine, 1.5 g/L Sodium bicarbonate, 10 mM HEPES and 10% FBS. […] PC3 cells for the assays were plated at a concentration of 2.0×10^4 cells/well in 96-well white/clear bottom plates (Falcon Optilux-I). Plates were used for the assays on day 2 of the post-plating.
RPMI 1640 (ATCC) containing 25 mM HEPES, 0.2% BSA fraction V, 1.0 mM AEBSF (CAS #3087-99-7) and 0.1% Bacitracin (CAS #1405-87-4), pH 7.4. Custom made ^125I-[Tyr°]NMB, >2.0 Ci/mole (Amersham Life Science) [^125I-NMB] and commercially available ^125I-[Tyr^4]BBN, >2.0 Ci/mole (Perkin Elmer Life Science) [^125I-BBN] were used as radioligands.
Using a 48-well plate assay system (for C6 study) competition experiments were performed using ^125I-NMB. […] Selection of compounds for the assay was based on linker subtype.
The binding parameters obtained from the studies were analyzed using a one-site competition non-linear regression analysis with GraphPad Prism. The relative affinity of various compounds for NMB-R in C6 cells were compared with those obtained using commercially available [Tyr^4]-BBN and [Tyro]-NMB. To distinguish the GRP-R preferring compounds from NMB-R plus GRP-R preferring compounds, IC50 values obtained for each compound were compared with those obtained from [Tyr^4-BBN with ^125I-NMB on C6 cells.

[2] = test system: GRP receptor binding in T47D human breast cancer cells; assay: Effect of drug treatment on GRP receptor binding (177Lu-AMBA) and proliferation in T-47D cells; format: cell-based; conditions: for change in 177Lu-AMBA binding (GRP receptor specific signal per cell), T47D: Table 25, range 0.001-0.1 μM, vs untreated controls; for decrease in 177Lu-AMBA binding (GRP receptor specific signal per cell) / increase in 177Lu-AMBA binding (GRP receptor specific signal per cell): relative to untreated control; for decrease in 177Lu-AMBA binding (GRP receptor specific signal per cell): drug 0.1-1.0 μM (4-OH Tamoxifen 0.001-0.1 μM); for increase in 177Lu-AMBA binding (GRP receptor specific signal per cell): drug 0.1-1.0 μM (gefitinib 0.1-10 μM); for GRP receptor specific signal per cell (177Lu-AMBA binding) versus untreated controls, in words: drug 0.1-1.0 μM (β2-estradiol 1 nM)
Source text: T-47D breast cancer cells (human metastatic mammary gland ductal adenocarcinoma isolated from pleural effusion, ER+, PR+) were obtained from the American Type Culture Collection.

[3] = test system: GRP receptor binding in PC-3 prostate cancer cells; assay: Effect of drug treatment on GRP receptor binding (177Lu-AMBA) and proliferation in PC-3 cells; conditions: for change in 177Lu-AMBA binding (GRP receptor specific signal per cell), PC-3: Table 25, range 0.001-0.1 μM, vs untreated controls; for decrease in 177Lu-AMBA binding (GRP receptor specific signal per cell): drug 0.1-1.0 μM (gefitinib 0.1-10 μM); for GRP receptor specific signal per cell (177Lu-AMBA binding) versus untreated controls, in words: drug 0.1-1.0 μM (4-OH Tamoxifen 0.001-0.1 μM)
Protocol: (§1) RPMI 1640 supplemented with 20 mM HEPES, 0.1% BSA (w/v), 0.5 mM PMSF (AEBSF), bacitracin (50 mg/500 ml), pH 7.4.
(§2) Treatment: BT-474 cells were plated on Day 0 (see above); approximately 24-48 h after plating, treatment Days 1 and 2 (DT1, DT2), the medium was removed and replaced with fresh growth medium (control), or growth medium with the addition of lapatinib (0.1-1.0 μM). […] Incubations were stopped by the addition of 200 μL of ice-cold binding buffer. Plates were washed three more times with binding buffer, 140 μL of scintillation fluid was added to each well, the plates were sealed and analyzed on a Microp plate reader (Microbeta Trilux, Perkin-Elmer).
(§3) Treatment: BT-474 cells were plated on Day 0 and treated on Days 1 and 2 (DT1, DT2).

[4] = test system: GRP receptor binding in BT-474 human breast cancer cells; assay: Effect of drug treatment on GRP receptor binding (177Lu-AMBA) and proliferation in BT-474 cells; conditions: for change in 177Lu-AMBA binding (GRP receptor specific signal per cell), BT-474: Table 25, range 0.001-0.1 μM, vs untreated controls; for GRP receptor specific signal per cell (177Lu-AMBA binding) versus untreated controls, in words: drug 0.1-1.0 μM (gefitinib 0.1-10 μM); for decrease in 177Lu-AMBA binding (GRP receptor specific signal per cell): relative to untreated control, drug 0.1-1.0 μM (4-OH Tamoxifen 0.001-0.1 μM)
Protocol: Cells for binding experiments were plated on Day 0 at 5.6×10^4 cells/cm^2 in 96-well white/clear bottom microtiter plates (Falcon Optilux-I), or 96 well black/clear collagen I cellware plates (Beckton Dickinson Biocoat).
as §1, §2, §3

[5] = PC-3, relative to untreated control

CSCC[C@H](NC(=O)[C@H](CC(C)C)NC(=O)[C@H](Cc1c[nH]cn1)NC(=O)CNC(=O)[C@@H](NC(=O)[C@H](C)NC(=O)[C@H](Cc1c[nH]c2ccccc12)NC(=O)[C@H](CCC(N)=O)NC(=O)CC[C@@H](C)[C@H]1CC[C@H]2[C@@H]3CC[C@@H]4C[C@@H](NC(=O)CNC(=O)CN5CCN(CC(=O)O)CCN(CC(=O)O)CCN(CC(=O)O)CC5)CC[C@]4(C)[C@H]3C[C@H](O)[C@]12C)C(C)C)C(N)=O [Compound L63, N-[(3β,5β,12α)-3-[[[[[4,7,10-Tris(carboxymethyl)-1,4,7,10-tetraazacyclododec-1-yl]acetyl]amino]acetyl]amino]-12-hydroxy-24-oxocholan-24-yl]-L-glutaminyl-L-tryptophyl-L-alanyl-L-valyl-glycyl-L-histidyl-L-leucyl-L-methioninamide]
Internalisation (40 minutes) (PC3 cells): 64% | Efflux (2 h) (PC3 cells): 0% | survival, Short Term Efficacy Study [1]: increased survival | GRP-R and NMB-R (binds both with similar affinity) (NMB-R): yes | receptor subtype preference (GRP-R versus NMB-R) (NMB-R): dual affinity for both GRP-R and NMB-R

CSCC[C@H](NC(=O)[C@H](CC(C)C)NC(=O)[C@H](Cc1c[nH]cn1)NC(=O)CNC(=O)[C@@H](NC(=O)[C@H](C)NC(=O)[C@H](Cc1c[nH]c2ccccc12)NC(=O)[C@H](CCC(N)=O)NC(=O)CC[C@@H](C)[C@H]1CC[C@H]2[C@@H]3[C@H](O)C[C@@H]4C[C@@H](NC(=O)CNC(=O)CN5CCN(CC(=O)O)CCN(CC(=O)O)CCN(CC(=O)O)CC5)CC[C@]4(C)[C@H]3C[C@H](O)[C@]12C)C(C)C)C(N)=O [Compound L64, N-[(3β,5β,7α,12α)-3-[[[[[4,7,10-Tris(carboxymethyl)-1,4,7,10-tetraazacyclododec-1-yl]acetyl]amino]acetyl]amino]-7,12-dihydroxy-24-oxocholan-24-yl]-L-glutaminyl-L-tryptophyl-L-alanyl-L-valyl-glycyl-L-histidyl-L-leucyl-L-methioninamide]
Internalisation (40 minutes) (PC3 cells): 69% | Efflux (2 h) (PC3 cells): 20% | survival, Short Term Efficacy Study [1]: increased survival | survival, Long Term Efficacy Study [1]: significantly increased survival | GRP-R and NMB-R (binds both with similar affinity) (NMB-R): yes | receptor subtype preference (GRP-R versus NMB-R) (NMB-R): dual affinity for both GRP-R and NMB-R

CC/C(=C(\c1ccc(O)cc1)c1ccc(OCCN(C)C)cc1)c1ccccc1 [Compounds 4-OH-Tamoxifen]
change in 177Lu-AMBA binding (GRP receptor specific signal per cell), T47D [2]: −35% | change in 177Lu-AMBA binding (GRP receptor specific signal per cell), PC-3 [3]: 0% | change in 177Lu-AMBA binding (GRP receptor specific signal per cell), BT-474 [4]: −73%

CC(C)(C#N)c1cc(Cn2cncn2)cc(C(C)(C)C#N)c1 [anastrozole]
decrease in 177Lu-AMBA binding (GRP receptor specific signal per cell) ([2]; T-47D): up to 10% | decrease in 177Lu-AMBA binding (GRP receptor specific signal per cell) [3, 5]: up to 10% | GRP receptor specific signal per cell (177Lu-AMBA binding) versus untreated controls, in words ([4]; BT-474): no change

CC(C)C[C@H](NC(=O)[C@H](Cc1ccccc1)NC(=O)c1cnccn1)B(O)O [bortezomib]
decrease in 177Lu-AMBA binding (GRP receptor specific signal per cell) ([2]; T-47D): up to 50% | decrease in 177Lu-AMBA binding (GRP receptor specific signal per cell) [3, 5]: up to 60% | decrease in 177Lu-AMBA binding (GRP receptor specific signal per cell) ([4]; BT-474): up to 50%

C#Cc1cccc(Nc2ncnc3cc(OCCOC)c(OCCOC)cc23)c1 [erlotinib]
increase in 177Lu-AMBA binding (GRP receptor specific signal per cell) ([2]; T-47D): 5-20% | decrease in 177Lu-AMBA binding (GRP receptor specific signal per cell) [3, 5]: 5-20% | GRP receptor specific signal per cell (177Lu-AMBA binding) versus untreated controls, in words ([4]; BT-474): no change

COc1cc2ncnc(Nc3ccc(F)c(Cl)c3)c2cc1OCCCN1CCOCC1 [gefitinib]
increase in 177Lu-AMBA binding (GRP receptor specific signal per cell) ([2]; T-47D): up to 20% | decrease in 177Lu-AMBA binding (GRP receptor specific signal per cell) [3, 5]: 20-40% | GRP receptor specific signal per cell (177Lu-AMBA binding) versus untreated controls, in words ([4]; BT-474): no change

Cc1ccc(NC(=O)c2ccc(CN3CCN(C)CC3)cc2)cc1Nc1nccc(-c2cccnc2)n1 [imatinib]
increase in 177Lu-AMBA binding (GRP receptor specific signal per cell) ([2]; T-47D): up to 15% | decrease in 177Lu-AMBA binding (GRP receptor specific signal per cell) [3, 5]: 15-25% | GRP receptor specific signal per cell (177Lu-AMBA binding) versus untreated controls, in words ([4]; BT-474): no change

CS(=O)(=O)CCNCc1ccc(-c2ccc3ncnc(Nc4ccc(OCc5cccc(F)c5)c(Cl)c4)c3c2)o1 [lapatinib]
decrease in cell proliferation ([2]; T-47D, at the highest concentration): ≤ 35% | increase in 177Lu-AMBA binding (GRP receptor specific signal per cell) ([2]; T-47D): up to 50% | proliferation versus untreated controls, in words ([3]; PC-3, 0.1-1.0 μM): no change | GRP receptor specific signal per cell (177Lu-AMBA binding) versus untreated controls, in words ([3]; PC-3): no change | decrease in cell proliferation ([4]; BT-474, at the highest concentration): ≤ 65%

CNC(=O)c1cc(Oc2ccc(NC(=O)Nc3ccc(Cl)c(C(F)(F)F)c3)cc2)ccn1 [sorafenib]
GRP receptor specific signal per cell (177Lu-AMBA binding) versus untreated controls, in words ([2]; T-47D): no change | change in 177Lu-AMBA uptake on a viable cell basis, T47D ([2]; Table 24, drug 0.1-1.0 μM (gefitinib 0.1-10, bortezomib 0.001-0.1), vs untreated control): NC (NC: Little (<10%) or no change in Lu-AMBA uptake) | decrease in 177Lu-AMBA binding (GRP receptor specific signal per cell) [3, 5]: 10-20% | decrease in 177Lu-AMBA binding (GRP receptor specific signal per cell) ([4]; BT-474): 10-25%

CCN(CC)CCNC(=O)c1c(C)[nH]c(/C=C2\C(=O)Nc3ccc(F)cc32)c1C [sunitinib]
increase in 177Lu-AMBA binding (GRP receptor specific signal per cell) ([2]; T-47D): up to 13% | increase in 177Lu-AMBA binding (GRP receptor specific signal per cell) ([3]; PC-3, relative to untreated control, drug 0.1-1.0 μM): up to 10% | decrease in 177Lu-AMBA binding (GRP receptor specific signal per cell) ([4]; BT-474): up to 8%

C[C@]12CC[C@@H]3c4ccc(O)cc4CC[C@H]3[C@@H]1CC[C@@H]2O [β2-estradiol]
GRP receptor specific signal per cell (177Lu-AMBA binding) versus untreated controls, in words ([2]; T-47D): did not change | change in 177Lu-AMBA binding (GRP receptor specific signal per cell), T47D [2]: 0% | GRP receptor specific signal per cell (177Lu-AMBA binding) versus untreated controls, in words ([3]; PC-3): no change | change in 177Lu-AMBA binding (GRP receptor specific signal per cell), PC-3 [3]: 0% | change in 177Lu-AMBA binding (GRP receptor specific signal per cell), BT-474 [4]: 47%

DO3A-monoamide-8-amino-octanoic acid-BBN (7-14)
Internalisation (40 minutes) (PC3 cells): 89% | Efflux (2 h) (PC3 cells): 28%

N-[4-[[[[4,7,10-Tris(carboxymethyl)-1,4,7,10-tetraazacyclododec-1-yl]acetyl]glycyl]amino]-3-methoxybenzoyl]-L-glutaminyl-L-tryptophyl-1-alanyl-L-valyl-glycyl-L-histidyl-L-leucyl-L-methioninamide [Compound L240]
receptor subtype preference (GRP-R versus NMB-R) (NMB-R): selective affinity to GRP-R

N-[4-[[[[[4,7,10-Tris(carboxymethyl)-1,4,7,10-tetraazacyclododec-1-yl]acetyl]amino]acetyl]amino]benzoyl]-L-glutaminyl-L-tryptophyl-L-alanyl-L-valyl-glycyl-L-histidyl-L-leucyl-L-methioninamide [Compound L70]
Internalisation (40 minutes) (PC3 cells): 70% | Efflux (2 h) (PC3 cells): 12% | survival, Short Term Efficacy Study [1]: increased survival | survival, Long Term Efficacy Study [1]: significantly increased survival
